Measurements from PubChem BioAssay AID330 (DTP/NCI, 2004).
Several values for one entry are separate records, joined by “and”; a condition that tells them apart may be missing. Identical values can stand only once. Toxic doses and inconclusive results are not listed.

System: P388 leukemia ip, CD2F1 mice, survival T/C
Experiment: NCI In Vivo Anticancer Drug Screen. Data for tumor model P388 Leukemia (intraperitoneal) in CD2F1 (CDF1) mice
Details: endpoint: median survival time, higher = longer survival
In short: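 Mice carrying the transplanted tumor received test compound or vehicle. Survival was recorded in each group, and the value is the treated-group measurement divided by that of the vehicle-treated control group.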

[1] = dose: 50.0 mg/kg/injection, schedule: Q01DX009 (ip), vehicle: saline with Tween-80
[2] = dose: 60.0 mg/kg/injection, schedule: Q01DX005 (ip), vehicle: saline with Tween-80
[3] = dose: 120.0 mg/kg/injection, schedule: Q01DX005 (ip), vehicle: saline with Tween-80
[4] = dose: 50.0 mg/kg/injection, schedule: Q01DX005 (ip), vehicle: saline with Tween-80
[5] = dose: 100.0 mg/kg/injection, schedule: Q01DX005 (ip), vehicle: saline with Tween-80
[6] = dose: 200.0 mg/kg/injection, schedule: Q01DX005 (ip), vehicle: saline with Tween-80
[7] = dose: 50.0 mg/kg/injection, schedule: Q01DX005 (ip), vehicle: Klucel (hydroxypropylcellulose) (HPC)
[8] = dose: 100.0 mg/kg/injection, schedule: Q01DX005 (ip), vehicle: Klucel (hydroxypropylcellulose) (HPC)
[9] = dose: 200.0 mg/kg/injection, schedule: Q01DX005 (ip), vehicle: Klucel (hydroxypropylcellulose) (HPC)
[10] = dose: 50.0 mg/kg/injection, schedule: Q01DX005 (ip), vehicle: saline
[11] = dose: 100.0 mg/kg/injection, schedule: Q01DX005 (ip), vehicle: saline
[12] = dose: 200.0 mg/kg/injection, schedule: Q01DX005 (ip), vehicle: saline

C=CCNC(=S)Nc1ccc(OC(=O)Nc2ccc(Cl)c(Cl)c2)cc1
T/C (dose: 6.25 mg/kg/injection, schedule: Q01DX009 (ip), vehicle: saline with Tween-80): 102 % of control | T/C (dose: 12.5 mg/kg/injection, schedule: Q01DX009 (ip), vehicle: saline with Tween-80): 96 % of control | T/C (dose: 25.0 mg/kg/injection, schedule: Q01DX009 (ip), vehicle: saline with Tween-80): 104 % of control | T/C [1]: 98 % of control

Cc1ccc(NC(=O)/C(Cl)=C(\Cl)C(=O)O)cc1C
T/C (dose: 3.75 mg/kg/injection, schedule: Q01DX005 (ip), vehicle: saline with Tween-80): 96 % of control | T/C (dose: 7.5 mg/kg/injection, schedule: Q01DX005 (ip), vehicle: saline with Tween-80): 102 % of control | T/C (dose: 15.0 mg/kg/injection, schedule: Q01DX005 (ip), vehicle: saline with Tween-80): 103 % of control and 110 % of control | T/C [2]: 104 % of control

O=C(O)Cc1ccc(N2N=C(c3ccccc3)CC2=O)cc1
T/C [2]: 98 % of control | T/C [3]: 92 % of control

O=c1[nH]c2nc(SCc3ccccc3)n(Cc3ccccc3)c2c(=O)n1OS(=O)(=O)c1ccccc1
T/C [2]: 98 % of control | T/C [3]: 90 % of control | T/C (dose: 240.0 mg/kg/injection, schedule: Q01DX005 (ip), vehicle: saline with Tween-80): 90 % of control

[N-]=[N+]=Nc1ccccc1C(=O)NCCCNC(=O)c1ccccc1N=[N+]=[N-]
T/C (dose: 12.5 mg/kg/injection, schedule: Q01DX005 (ip), vehicle: saline with Tween-80): 91 % of control | T/C (dose: 25.0 mg/kg/injection, schedule: Q01DX005 (ip), vehicle: saline with Tween-80): 87 % of control | T/C [4]: 86 % of control

O=S(=O)(Nc1ccnn1-c1ccccc1)c1ccc(NC(=S)Nc2ccccc2)cc1
T/C [4]: 96 % of control | T/C [5]: 93 % of control | T/C [6]: 91 % of control

C=CC(=O)NC(C)(C)C(=O)O
T/C (dose: 50.0 mg/kg/injection, schedule: Q01DX009 (ip), vehicle: saline): 99 % of control | T/C (dose: 100.0 mg/kg/injection, schedule: Q01DX009 (ip), vehicle: saline): 97 % of control | T/C (dose: 200.0 mg/kg/injection, schedule: Q01DX009 (ip), vehicle: saline): 99 % of control

CNC(=S)P(c1ccccc1)c1ccccc1
T/C [7]: 105 % of control | T/C [8]: 96 % of control | T/C [9]: 105 % of control

CCCCCCCCSCCN(CC)CC
T/C [10]: 104 % of control | T/C [11]: 103 % of control | T/C [12]: 95 % of control

CC1CCCCN1C(=O)C(c1ccccc1)(c1ccccc1)c1ccccc1 (stereo not given)
T/C [7]: 99 % of control | T/C [8]: 99 % of control | T/C [9]: 93 % of control

O=[N+]([O-])c1ccc(/C=C/[P+](c2ccccc2)(c2ccccc2)c2ccccc2)o1
T/C (dose: 0.78 mg/kg/injection, schedule: Q01DX009 (ip), vehicle: saline): 103 % of control | T/C (dose: 1.56 mg/kg/injection, schedule: Q01DX009 (ip), vehicle: saline): 98 % of control | T/C (dose: 3.12 mg/kg/injection, schedule: Q01DX009 (ip), vehicle: saline): 101 % of control

COc1ccc2c(c1OC)-c1ccccc1C(=O)OC2
T/C (dose: 100.0 mg/kg/injection, schedule: Q04DX002 (ip), vehicle: saline with Tween-80): 109 % of control | T/C (dose: 200.0 mg/kg/injection, schedule: Q04DX002 (ip), vehicle: saline with Tween-80): 100 % of control | T/C (dose: 400.0 mg/kg/injection, schedule: Q04DX002 (ip), vehicle: saline with Tween-80): 91 % of control

CC(=O)C(N=Nc1ccc(S(=O)(=O)N=C(N)N)cc1)C(C)=O
T/C (dose: 100.0 mg/kg/injection, schedule: Q04DX003 (ip), vehicle: saline with Tween-80): 90 % of control | T/C (dose: 200.0 mg/kg/injection, schedule: Q04DX003 (ip), vehicle: saline with Tween-80): 88 % of control | T/C (dose: 400.0 mg/kg/injection, schedule: Q04DX003 (ip), vehicle: saline with Tween-80): 87 % of control

CCN(CC)CCN(C(=O)OCCOC(=O)N(CCN(CC)CC)c1cccc2sc3ccccc3c(=O)c12)c1cccc2sc3ccccc3c(=O)c12
T/C [4]: 99 % of control | T/C [5]: 106 % of control | T/C [6]: 105 % of control

Nc1n[nH]c(-c2ccccc2)n1
T/C [1]: 117 % of control | T/C (dose: 100.0 mg/kg/injection, schedule: Q01DX009 (ip), vehicle: saline with Tween-80): 101 % of control

CNc1ncnc2c1ncn2C1CCCCO1 (stereo not given)
T/C [10]: 102 % of control | T/C [11]: 100 % of control | T/C [12]: 91 % of control

CC1C(c2ccccc2)NC(c2ccccc2)C(C)C1(O)c1ccccc1 (stereo not given)
T/C [4]: 107 % of control | T/C [5]: 107 % of control
